Measurements published in US6399574B1 (priority 1997, dated 2002).
Where a SMILES comes first, the peptide text is derived from it. [ ]: non-standard residue; d: D form. Gla = N[C@@H](CC(C(=O)O)C(=O)O)C(=O)O

Columns and labels:
[1] = target: T1, NR1-1b/NR2B NMDA subtype (Homo sapiens, UniProt Q05586+Q13224); type: cell-based
T1 construct: expressed in transfected cells; host or cells: oocytes

[2] = target: T2, NR1. 1B subtype (Homo sapiens, UniProt Q05586); type: cell-based
T2 construct: expressed in transfected cells; host or cells: oocytes

[3] = tested on: Frings audiogenic seizure susceptible mice; settings: mouse, in vivo

T1 sequence (Q13224 27-1484, other chains not shown): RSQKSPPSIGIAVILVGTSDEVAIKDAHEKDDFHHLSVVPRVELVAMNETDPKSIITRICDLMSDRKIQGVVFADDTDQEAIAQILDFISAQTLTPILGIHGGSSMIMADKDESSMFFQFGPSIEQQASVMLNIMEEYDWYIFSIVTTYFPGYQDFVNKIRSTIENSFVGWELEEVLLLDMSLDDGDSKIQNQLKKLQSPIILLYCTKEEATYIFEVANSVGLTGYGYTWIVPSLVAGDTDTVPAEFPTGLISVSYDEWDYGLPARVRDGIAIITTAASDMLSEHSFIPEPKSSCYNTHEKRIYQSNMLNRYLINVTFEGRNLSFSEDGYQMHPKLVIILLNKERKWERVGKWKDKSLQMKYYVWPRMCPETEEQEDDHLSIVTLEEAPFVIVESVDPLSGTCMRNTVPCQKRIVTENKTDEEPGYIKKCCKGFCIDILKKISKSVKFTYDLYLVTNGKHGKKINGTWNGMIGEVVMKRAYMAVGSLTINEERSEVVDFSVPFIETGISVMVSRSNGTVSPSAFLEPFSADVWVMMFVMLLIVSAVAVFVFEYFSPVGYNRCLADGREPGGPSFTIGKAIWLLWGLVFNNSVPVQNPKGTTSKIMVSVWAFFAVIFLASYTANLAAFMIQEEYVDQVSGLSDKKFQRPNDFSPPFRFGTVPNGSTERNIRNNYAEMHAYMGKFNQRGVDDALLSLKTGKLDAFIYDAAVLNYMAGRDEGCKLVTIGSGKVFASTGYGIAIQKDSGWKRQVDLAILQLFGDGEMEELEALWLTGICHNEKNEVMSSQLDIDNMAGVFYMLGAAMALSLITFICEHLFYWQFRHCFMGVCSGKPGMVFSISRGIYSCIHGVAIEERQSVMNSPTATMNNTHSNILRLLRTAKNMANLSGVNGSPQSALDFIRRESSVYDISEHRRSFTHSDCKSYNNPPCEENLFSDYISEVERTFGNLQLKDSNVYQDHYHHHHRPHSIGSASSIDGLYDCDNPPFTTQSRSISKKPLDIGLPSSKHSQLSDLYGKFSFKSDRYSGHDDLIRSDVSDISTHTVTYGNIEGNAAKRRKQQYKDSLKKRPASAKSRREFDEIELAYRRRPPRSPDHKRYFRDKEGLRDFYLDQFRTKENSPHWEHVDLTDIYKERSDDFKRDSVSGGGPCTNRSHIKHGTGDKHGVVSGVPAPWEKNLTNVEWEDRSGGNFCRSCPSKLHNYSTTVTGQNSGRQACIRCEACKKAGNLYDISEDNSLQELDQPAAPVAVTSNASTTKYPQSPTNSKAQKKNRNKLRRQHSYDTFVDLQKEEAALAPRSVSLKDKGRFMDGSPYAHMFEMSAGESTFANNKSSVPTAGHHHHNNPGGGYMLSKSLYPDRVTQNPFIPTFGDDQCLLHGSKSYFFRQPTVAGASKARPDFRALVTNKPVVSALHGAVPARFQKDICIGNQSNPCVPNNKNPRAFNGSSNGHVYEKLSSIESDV

CC[C@H](C)[C@H](NC(=O)[C@H](CC(N)=O)NC(=O)[C@H](CC(C(=O)O)C(=O)O)NC(=O)[C@H](CCCNC(=N)N)NC(=O)[C@H](C)NC(=O)[C@H](CC(C)C)NC(=O)[C@H](CC(C(=O)O)C(=O)O)NC(=O)[C@H](C)NC(=O)[C@H](C)NC(=O)[C@H](CCSC)NC(=O)[C@H](CCCCN)NC(=O)[C@H](C)NC(=O)[C@@H](NC(=O)[C@H](CC(C(=O)O)C(=O)O)NC(=O)[C@H](CC(C(=O)O)C(=O)O)NC(=O)[C@H](CCC(=O)O)NC(=O)CN)C(C)C)C(=O)N[C@@H](C)C(=O)N[C@@H](CCCCN)C(=O)NCC(=O)N[C@H]1CSSC[C@@H](C(=O)N[C@@H](Cc2ccc(O)cc2)C(=O)N2CCC[C@H]2C(=O)O)NC(=O)[C@H](CC(N)=O)NC(=O)[C@H](C(C)C)NC(=O)[C@H](CCCCN)NC1=O [Con R] was tested, and the “affinity for NR1-1b/NR2B relative to NR1-1b/NR2D” value [1] was “greater than 50 fold”, the “inhibition of the current produced in response to glutamate and glycine” value [1] was “approximately 95%” and the “selectivity for the B splice variant in heteromeric complexes” value [1] was “selective for the B splice variant”. The “inhibition of homomeric NR1 complex, 1B subtype” value [2] was “only inhibited the NR1. 1B subtype”.
CSCC[C@H](NC(=O)[C@H](CCCCN)NC(=O)[C@H](CCC(N)=O)NC(=O)[C@H](Cc1ccc(O)cc1)NC(=O)[C@H](CC(C(=O)O)C(=O)O)NC(=O)[C@H](CC(C(=O)O)C(=O)O)NC(=O)[C@H](CCC(=O)O)NC(=O)CN)C(=O)N[C@@H](CC(C)C)C(=O)N[C@@H](CC(C(=O)O)C(=O)O)C(=O)N[C@@H](CC(N)=O)C(=O)N[C@@H](CC(C)C)C(=O)N[C@@H](CCCNC(=N)N)C(=O)N[C@@H](CC(C(=O)O)C(=O)O)C(=O)N[C@@H](C)C(=O)N[C@@H](CCC(=O)O)C(=O)N[C@H](C(=O)N[C@@H](CCCCN)C(=O)N[C@@H](CCCCN)C(=O)N[C@@H](CC(N)=O)C(=O)N[C@@H](C)C(N)=O)C(C)C [Con T, Gly-Glu-Xaa1-Xaa1-Tyr-Gln-Lys-Met-Leu-Xaa2-Asn-Leu-Arg-Xaa2-Ala-Glu-Val-Lys-Lys-Asn-Ala] (H-GE[Gla][Gla]YQKML[Gla]NLR[Gla]AEVKKNA-NH2) was tested, and the ED50 [3] was 0.017 nmols and the “ED50 (pmol, i.c.v.)” value [3] was 5.1 pmol.
